Where two headings read alike, the source gives them in different places.
How the values were obtained:
Phaedon cochleariae = Phaedon cochleariae - spray test; format: in vivo; conditions: application rate 100 g/ha, larvae on Chinese cabbage leaf discs, after 7 days
Protocol: Phaedon cochleariae—Spray Test
Solvent: 78.0 parts by weight of acetone and 1.5 parts by weight of dimethylformamide
Emulsifier: alkylaryl polyglycol ether
To produce an appropriate active ingredient formulation, 1 part by weight of active ingredient is dissolved using the specified parts by weight of solvent and made up with water containing an emulsifier concentration of 1000 ppm until the desired concentration is attained. To produce further test concentrations, the preparation is diluted with emulsifier-containing water.
Discs of Chinese cabbage leaves (Brassica pekinensis) are sprayed with an active ingredient formulation of the desired concentration and, after drying, populated with larvae of the mustard beetle (Phaedon cochleariae).
After 7 days, efficacy in % is determined. 100% means that all the beetle larvae have been killed; 0% means that no beetle larvae have been killed.

[1] = logP determination by HPLC on a reversed-phase column (C18), EEC Directive 79/831 Annex V.A8; format: physicochemical; conditions: for log P: HPLC-MS, reversed-phase column (C18)
Lucilia cuprina = Lucilia cuprina test; format: in vivo; conditions: application rate 100 ppm; L1 larvae in minced horsemeat; kill after 2 days
Method in brief: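 About 20 L1 larvae placed on minced horsemeat treated with compound, formulated in DMSO and diluted with water to test concentration. Kill in % scored after 2 days (100% = all larvae dead, 0% = none).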

Amblyomma hebraeum = Amblyomma hebraeum test (tick nymphs, immersion); format: in vivo; conditions: application rate 100 ppm; tick nymphs immersed for one minute; kill after 42 days
Method in brief: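 Tick nymphs immersed for one minute in compound diluted in water from a DMSO concentrate, then held on filter paper in a Petri dish in a climate-controlled cabinet. Kill (%) scored after 42 days; 100% means all ticks dead, 0% none.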

Musca domestica = Musca domestica test; format: in vivo; conditions: application rate 100 ppm; adult houseflies; kill after 2 days
Method in brief: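 Percent kill of adult houseflies is recorded 2 days after exposure, where 100% denotes all flies dead and 0% none. Flies (10 per vessel) feed from a sponge carrying sugar solution and the aqueous-diluted DMSO formulation.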

[2] = tested on: Boophilus microplus Parkhurst strain, SP-resistant; test: Boophilus microplus - dip test; format: in vivo; conditions: application rate 100 ppm; dip of engorged adult female ticks; laying of fertile eggs, after 7 days
Method in brief: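 Adult engorged females of SP-resistant Parkhurst strain (8–10 per tube) fully immersed in compound diluted in water from a DMSO solution. Ticks then kept on filter discs in a climate-controlled room; efficacy scored from fertile egg laying at 7 days, with unclear eggs held about 42 days until hatch (100% = no fertile eggs).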

Ctenocephalides felis [3] = test: Ctenocephalides felis - oral test; format: in vivo; conditions: application rate 100 ppm in citrated cattle blood; adult fleas; kill after 2 days
Method in brief: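 Mortality in % was recorded 2 days after about 20 unfed adult cat fleas were allowed to imbibe citrated cattle blood containing the active ingredient through a parafilm membrane. The compound was first taken up in DMSO and then diluted with the blood to the desired concentration.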

Boophilus microplus = Boophilus microplus - injection test; format: in vivo; conditions: application rate 20 μg/animal; injected into engorged adult female ticks; laying of fertile eggs, after 7 days
Method in brief: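 Scoring was by fertile egg laying 7 days after injection, holding doubtful eggs until larvae hatched at about 42 days; 100% = no fertile eggs, 0% = all eggs fertile. Groups of 5 engorged adult female cattle ticks were each injected abdominally with 1 μl of compound in DMSO.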

Ctenocephalides felis [4] = test: Ctenocephalides felis - in vitro contact tests with adult cat fleas; format: in vivo; conditions: application rate 5 μg/cm^2 (=500 g/ha), after 48 h (dead or moribund)
Method in brief: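 Acetone solution coated on test-tube inner walls (900 ppm gives 5 μg/cm^2). After drying, 5-10 adult cat fleas added and kept horizontal at room temperature and ambient humidity. At 48 h fleas knocked down; motionless or uncoordinated ones counted dead/moribund, giving % efficacy.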

Rhipicephalus sanguineus = Rhipicephalus sanguineus - in vitro contact tests with adult brown dog ticks; format: in vivo
Method in brief: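 Test compound was dissolved in acetone p.a. (9 mg in 1 ml, then diluted), and 250 μl were spread evenly over the inner surface of 25 ml test tubes on an orbital shaker at 30 rpm for 2 h. Once the solvent evaporated, 5-10 adult Rhipicephalus sanguineus ticks were sealed in, kept dark at room temperature, and after 48 h placed on a 45-50° C. hotplate to score dead or moribund ticks.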

[5] = application rate 5 μg/cm^2, after 48 h (dead or moribund)

| chromatographic logP ([1]; reversed-phase HPLC column (C18), HPLC, reversed-phase C18, acetonitrile/water with formic acid, 55° C., read-out: logP) | chromatographic logP ([1]; reversed-phase HPLC column (C18), HPLC-MS method a); read-out: logP^a)) | logP ([1]; HPLC, reversed-phase C18, acetonitrile/water with formic acid, 55° C.) | SMILES | pest or weed control at 100 g/ha (Phaedon cochleariae; Phaedon cochleariae, foliar, 168 h, read-out: efficacy) [%] | efficacy (Lucilia cuprina) [%] | efficacy (Amblyomma hebraeum) [%] | efficacy (Musca domestica) [%] | efficacy [2] [%] | log P [1] | efficacy (Ctenocephalides felis [3]) [%] | efficacy (Boophilus microplus) [%] | efficacy (Ctenocephalides felis [4]) [%] | efficacy (Rhipicephalus sanguineus; [5]) [%] | efficacy (Rhipicephalus sanguineus; application rate 1 μg/cm^2, after 48 h (dead or moribund)) [%] | efficacy (Phaedon cochleariae) [%] |
| --- | --- | --- | --- | --- | --- | --- | --- | --- | --- | --- | --- | --- | --- | --- | --- |
| 4.9 | 4.9 |  | Cc1cc(C(F)(C(F)(F)F)C(F)(F)F)cc(C)c1-c1ccn(-c2ccc(Cl)c(C(=O)NC3CC3)c2)n1 [I-T2-1, 2-chloro-N-cyclopropyl-5-[3-[2,6-dimethyl-4-[1,2,2,2-tetrafluoro-1-(trifluoromethyl)ethyl]phenyl]pyrazol-1-yl]benzamide] | 100 |  |  |  |  |  |  |  |  |  |  |  |
|  |  |  | Cc1cc(C(F)(C(F)(F)F)C(F)(F)F)cc(C(F)(F)F)c1-n1cc(-c2cnc(C)c(C(=O)NC3(C#N)CC3)c2)cn1 [I-T3-119] |  | 100 | 100 | 100 | 100 | 3.6 | 100 | 100 | 100 | 100 |  |  |
|  |  |  | Cc1cc(C(F)(C(F)(F)F)C(F)(F)F)cc(C(F)(F)F)c1-n1cc(-c2cnc(C)c(C(=O)N(C)C3(C#N)CC3)c2)cn1 [I-T3-123] |  | 100 | 80 | 100 | 100 | 3.9 | 100 | 100 | 100 |  | 80 |  |
|  |  |  | Cc1ncc(-c2cnn(-c3c(Cl)cc(C(F)(C(F)(F)F)C(F)(F)F)cc3C(F)(F)F)c2)cc1C(=O)NC1(C#N)CC1 [I-T3-125] |  | 100 | 100 | 100 | 100 | 3.8 | 100 | 100 | 100 |  |  | 100 |
|  |  |  | O=C(NC1CC1)c1cc(-c2cnn(-c3c(Br)cc(C(F)(C(F)(F)F)C(F)(F)F)cc3C(F)(F)F)c2)ccc1Cl [I-T3-148] |  | 100 | 100 | 100 | 100 | 4.5 | 100 | 100 | 100 | 100 |  |  |
|  |  |  | N#CC1(NC(=O)c2cc(-c3cnn(-c4c(Br)cc(C(F)(C(F)(F)F)C(F)(F)F)cc4C(F)(F)F)c3)ccc2Cl)CC1 [I-T3-155] |  | 100 | 100 | 100 | 100 | 4.4 | 100 | 100 | 100 | 100 |  |  |
|  |  |  | O=C(NC1CC1)c1cc(-c2cnn(-c3c(Cl)cc(C(F)(C(F)(F)F)C(F)(F)F)cc3OC(F)(F)F)c2)ccc1Cl [I-T3-162] |  | 100 | 100 | 100 | 100 | 4.6 | 100 | 100 | 100 | 100 |  |  |
|  |  |  | N#CC1(NC(=O)c2cc(-c3cnn(-c4c(Cl)cc(C(F)(C(F)(F)F)C(F)(F)F)cc4OC(F)(F)F)c3)ccc2Cl)CC1 [I-T3-163] |  | 100 | 100 | 100 | 100 | 4.5 | 100 | 100 | 100 | 100 |  |  |
|  |  | 4.6 | Cc1cc(C(F)(C(F)(F)F)C(F)(F)F)cc(C)c1-c1cc(-c2ccc(Cl)c(C(=O)NC3(C#N)CC3)c2)on1 [I-T22-2] |  | 100 | 100 | 100 | 100 |  | 100 | 100 | 100 | 100 |  |  |
